Assay results published in patent US9957271B2, “Substituted bicyclic aza-heterocycles and analogues as sirtuin modulators” (GlaxoSmithKline, LLC, priority 2012, dated 2018).

Tests used:
SIRT1 [1] = molecular target: T1, SIRT1 (Homo sapiens, UniProt Q96EB6); assay: TAMRA based mass spectrometry assay of SIRT1 activity; format: biochemical; conditions: for Emax: read-out: TAMRA % Fold Act
T1 sequence (Q96EB6 1-747): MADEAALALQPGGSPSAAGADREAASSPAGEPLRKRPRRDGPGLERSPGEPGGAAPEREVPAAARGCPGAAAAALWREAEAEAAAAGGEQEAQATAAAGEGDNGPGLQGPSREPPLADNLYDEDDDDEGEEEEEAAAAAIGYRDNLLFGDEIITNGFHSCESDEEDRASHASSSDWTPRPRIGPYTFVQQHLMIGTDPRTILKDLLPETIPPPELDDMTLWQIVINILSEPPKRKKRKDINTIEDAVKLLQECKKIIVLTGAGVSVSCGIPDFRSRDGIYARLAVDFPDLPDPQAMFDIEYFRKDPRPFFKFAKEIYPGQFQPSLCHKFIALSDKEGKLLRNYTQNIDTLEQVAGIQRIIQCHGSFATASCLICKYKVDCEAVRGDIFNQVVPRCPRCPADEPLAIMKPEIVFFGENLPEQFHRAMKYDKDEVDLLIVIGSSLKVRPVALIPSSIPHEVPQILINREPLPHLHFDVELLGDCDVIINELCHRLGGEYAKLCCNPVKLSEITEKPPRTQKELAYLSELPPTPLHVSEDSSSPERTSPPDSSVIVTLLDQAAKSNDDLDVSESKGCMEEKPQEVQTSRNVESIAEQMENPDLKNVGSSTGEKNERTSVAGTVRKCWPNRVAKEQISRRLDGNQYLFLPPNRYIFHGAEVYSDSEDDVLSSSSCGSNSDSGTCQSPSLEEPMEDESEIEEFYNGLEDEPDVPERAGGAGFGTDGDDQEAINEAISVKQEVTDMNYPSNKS
How it was run: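 Recombinant N-terminal His-tagged human SIRT1 (10 nM, E. coli) incubated 25 min at 25 °C with 0.5 μM 5TMR-labelled p53-derived acetyl-peptide and 120 μM βNAD+ in Tris-acetate pH 8 buffer with DTT and 0.05% BSA, compound at varying concentrations. Stopped with formic acid; deacetylated peptide or OAADPR measured by mass spectrometry relative to DMSO controls.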

SIRT1 [2] = molecular target: T1, SIRT1; assay: Trp mass spectrometry assay of SIRT1 activity; format: biochemical; conditions: for Emax: read-out: Trp % Fold Act
How it was run: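 His-tagged SIRT1 expressed in E. coli BL21(DE3), 10 nM, incubated 25 min at 25° C. with 0.5 μM Ac-RHKK(Ac)W-NH2 peptide and 120 μM βNAD+ in 50 mM HEPES pH 7.5, […], 1 mM DTT, 0.05% BSA; formic acid stop. OAADPR or deacetylated peptide measured by mass spectrometry; EC1.5 and percent maximum activation versus DMSO control.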

[3] = concentration of test compound giving 150% activation of SIRT1, TAMRA peptide substrate
[4] = percent maximum fold activation of SIRT1, TAMRA peptide substrate
[5] = concentration of test compound giving 150% activation of SIRT1, Trp peptide substrate
[6] = percent maximum fold activation of SIRT1, Trp peptide substrate
[7] = TAMRA peptide substrate, concentration giving 150% activation of SIRT1
[8] = TAMRA peptide substrate, percent maximum fold activation
[9] = Trp peptide substrate, concentration giving 150% activation of SIRT1
[10] = Trp peptide substrate, percent maximum fold activation
[11] = TAMRA assay, concentration giving 150% activation of SIRT1
[12] = TAMRA assay, percent maximum fold activation
[13] = Trp assay, concentration giving 150% activation of SIRT1
[14] = Trp assay, percent maximum fold activation

Compound	TAMRA EC1.5 (μM) (SIRT1 [1]; [11])	Emax (SIRT1 [1]; [12]) [%]	Trp EC1.5 (μM) (SIRT1 [2]; [13])	Emax (SIRT1 [2]; [14]) [%]	other results
O=C(Nc1cnc2ccc(-c3ccccc3C(F)(F)F)nn12)c1nccs1 [Compound 122]	–	–	–	–	TAMRA EC1.5 (μM) (SIRT1 [1]; [3]): A (EC1.5<1 μM); Emax (SIRT1 [1]; [4]): ≥ 350%; Trp EC1.5 (μM) (SIRT1 [2]; [5]): B (EC1.5 1-25 μM); Emax (SIRT1 [2]; [6]): < 350%
Cc1nc2ccc(-c3cccc(OC[C@H](O)CO)c3)nn2c1C(=O)Nc1ccncn1 [Compound 594]	–	–	–	–	TAMRA EC1.5 (SIRT1 [1]; [7]): B (EC1.5 1-25 μM); Emax (SIRT1 [1]; [8]): < 350%; Trp EC1.5 (SIRT1 [2]; [9]): B (EC1.5 1-25 μM); Emax (SIRT1 [2]; [10]): < 350%
O=C(Nc1cccc(CN2CCOCC2)n1)c1cnn2ccc(-c3ccccc3OC(F)(F)F)nc12 [Compound 535]	–	–	–	–	TAMRA EC1.5 (SIRT1 [1]; [7]): A (EC1.5<1 μM); Emax (SIRT1 [1]; [8]): ≥ 350%; Trp EC1.5 (SIRT1 [2]; [9]): A (EC1.5<1 μM); Emax (SIRT1 [2]; [10]): ≥ 350%
Cc1nc(C(=O)Nc2c(C)nc3ccc(-c4ccccc4Cl)nn23)c(C)s1 [Compound 352]	B (EC1.5 1-25 μM)	< 350	C (EC1.5>25 μM)	< 350	–
Cc1nc(NC(=O)c2c(C)nc3c(C)cc(-c4ccccc4C(F)(F)F)nn23)sc1C [Compound 457]	–	–	–	–	TAMRA EC1.5 (SIRT1 [1]; [7]): A (EC1.5<1 μM); Emax (SIRT1 [1]; [8]): ≥ 350%; Trp EC1.5 (SIRT1 [2]; [9]): A (EC1.5<1 μM); Emax (SIRT1 [2]; [10]): < 350%
Cc1cc(OCC(O)CO)nc(NC(=O)c2cnc3ccc(-c4ccccc4Cl)nn23)n1 (stereo not shown) [Compound 285]	B (EC1.5 1-25 μM)	< 350	B (EC1.5 1-25 μM)	< 350	–
COc1cccc(NC(=O)c2c(C)nn3ccc(-c4ccccc4C(F)(F)F)nc23)n1 [Compound 551, N-(6-methoxypyridin-2-yl)-2-methyl-5-(2-(trifluoromethyl)phenyl)pyrazolo[1,5-a]pyrimidine-3-carboxamide]	–	–	–	–	TAMRA EC1.5 (SIRT1 [1]; [7]): A (EC1.5<1 μM); Emax (SIRT1 [1]; [8]): ≥ 350%; Trp EC1.5 (SIRT1 [2]; [9]): A (EC1.5<1 μM); Emax (SIRT1 [2]; [10]): ≥ 350%
Cc1cnc(NC(=O)c2c(C)nc3ccc(-c4cccc(OC[C@H](O)CO)c4)nn23)s1 [Compound 823]	A (EC1.5<1 μM)	< 350	A (EC1.5<1 μM)	< 350	–
O=C(Nc1ccnc(CN2CCOCC2)n1)c1cnc2ccc(-c3ccccc3C(F)(F)F)nn12 [Compound 23]	–	–	–	–	TAMRA EC1.5 (μM) (SIRT1 [1]; [3]): B (EC1.5 1-25 μM); Emax (SIRT1 [1]; [4]): ≥ 350%; Trp EC1.5 (μM) (SIRT1 [2]; [5]): B (EC1.5 1-25 μM); Emax (SIRT1 [2]; [6]): < 350%
CC(C)c1nccc(C(=O)Nc2cnn3ccc(-c4ccccc4OC(F)(F)F)nc23)n1 [Compound 728]	A (EC1.5<1 μM)	≥ 350	C (EC1.5>25 μM)	< 350	–
Cc1cncc(NC(=O)c2c(C)nn3ccc(-c4ccccc4C(F)(F)F)nc23)n1 [Compound 737]	A (EC1.5<1 μM)	≥ 350	A (EC1.5<1 μM)	≥ 350	–
Cc1cc(NC(=O)c2cnc3ccc(-c4ccccc4C(F)(F)F)nn23)cc(OC[C@@H](O)CO)n1 [Compound 558]	–	–	–	–	TAMRA EC1.5 (SIRT1 [1]; [7]): A (EC1.5<1 μM); Emax (SIRT1 [1]; [8]): ≥ 350%; Trp EC1.5 (SIRT1 [2]; [9]): A (EC1.5<1 μM); Emax (SIRT1 [2]; [10]): ≥ 350%
Cc1cc(-c2ccccc2C(F)(F)F)nn2c(C(=O)Nc3cccnn3)cnc12 [Compound 514]	–	–	–	–	TAMRA EC1.5 (SIRT1 [1]; [7]): A (EC1.5<1 μM); Emax (SIRT1 [1]; [8]): ≥ 350%; Trp EC1.5 (SIRT1 [2]; [9]): A (EC1.5<1 μM); Emax (SIRT1 [2]; [10]): ≥ 350%
Cc1cncc(NC(=O)c2cnn3ccc(-c4ccccc4C(F)(F)F)nc23)n1 [Compound 654]	A (EC1.5<1 μM)	≥ 350	B (EC1.5 1-25 μM)	< 350	–
Cc1nc2ccc(-c3cccc(OC[C@H](O)CO)c3)nn2c1C(=O)Nc1cccnn1 [Compound 597]	B (EC1.5 1-25 μM)	< 350	A (EC1.5<1 μM)	< 350	–
COc1nccc(NC(=O)c2cnn3ccc(-c4ccccc4OC(F)(F)F)nc23)n1 [Compound 797]	A (EC1.5<1 μM)	≥ 350	A (EC1.5<1 μM)	≥ 350	–
O=C(Nc1cncc(F)c1)c1cnc2ccc(-c3ccccc3C(F)(F)F)nn12 [Compound 107]	–	–	–	–	TAMRA EC1.5 (μM) (SIRT1 [1]; [3]): B (EC1.5 1-25 μM); Emax (SIRT1 [1]; [4]): ≥ 350%; Trp EC1.5 (μM) (SIRT1 [2]; [5]): B (EC1.5 1-25 μM); Emax (SIRT1 [2]; [6]): < 350%
O=C(Nc1ccncn1)c1cnc2ccc(-c3ccccc3OC[C@H](O)CO)nn12 [Compound 833]	B (EC1.5 1-25 μM)	≥ 350	B (EC1.5 1-25 μM)	< 350	–
Cc1cccc(NC(=O)c2c(C)nc3ccc(-c4cccc(OC[C@H](O)CO)c4)nn23)n1 [Compound 790]	A (EC1.5<1 μM)	≥ 350	A (EC1.5<1 μM)	≥ 350	–
Cc1cnc(NC(=O)c2cnn3ccc(-c4ccccc4C(F)(F)F)nc23)s1 [Compound 507]	–	–	–	–	TAMRA EC1.5 (SIRT1 [1]; [7]): A (EC1.5<1 μM); Emax (SIRT1 [1]; [8]): ≥ 350%; Trp EC1.5 (SIRT1 [2]; [9]): B (EC1.5 1-25 μM); Emax (SIRT1 [2]; [10]): < 350%
COc1ccc(NC(=O)c2c(C)nc3ccc(-c4ccccc4Cl)nn23)nn1 [Compound 743]	B (EC1.5 1-25 μM)	< 350	C (EC1.5>25 μM)	< 350	–
O=C(Nc1cccnc1)c1cnc2ccc(-c3ccc(F)c(F)c3F)nn12 [Compound 131]	–	–	–	–	TAMRA EC1.5 (μM) (SIRT1 [1]; [3]): C (EC1.5>25 μM); Emax (SIRT1 [1]; [4]): < 350%; Trp EC1.5 (μM) (SIRT1 [2]; [5]): C (EC1.5>25 μM); Emax (SIRT1 [2]; [6]): < 350%
O=C(Nc1ccc(F)cn1)c1cnc2ccc(-c3ccccc3OC[C@H](O)CO)nn12 [Compound 814]	B (EC1.5 1-25 μM)	≥ 350	B (EC1.5 1-25 μM)	< 350	–
CCNc1cccc(NC(=O)c2cnc3ccc(-c4ccccc4F)nn23)n1 [Compound 327]	A (EC1.5<1 μM)	≥ 350	A (EC1.5<1 μM)	< 350	–
O=C(Nc1ccccn1)c1cnc2ccc(-c3ccccc3OC(F)(F)F)nn12 [Compound 14]	–	–	–	–	TAMRA EC1.5 (μM) (SIRT1 [1]; [3]): A (EC1.5<1 μM); Emax (SIRT1 [1]; [4]): ≥ 350%; Trp EC1.5 (μM) (SIRT1 [2]; [5]): B (EC1.5 1-25 μM); Emax (SIRT1 [2]; [6]): ≥ 350%
Cc1cccc(NC(=O)c2cnc3ccc(-c4ccccc4OCC(O)CO)nn23)n1 (stereo not shown) [Compound 369]	A (EC1.5<1 μM)	≥ 350	B (EC1.5 1-25 μM)	≥ 350	–

The next lines start with results.

TAMRA EC1.5 (μM) (SIRT1 [1]; [11])	Emax (SIRT1 [1]; [12]) [%]	Trp EC1.5 (μM) (SIRT1 [2]; [13])	Emax (SIRT1 [2]; [14]) [%]	Compound	other results
A (EC1.5<1 μM)	≥ 350	C (EC1.5>25 μM)	< 350	O=C(Nc1cnn2ccc(-c3ccccc3C(F)(F)F)nc12)c1cc(O)ncn1 [Compound 830]	–
C (EC1.5>25 μM)	< 350	B (EC1.5 1-25 μM)	≥ 350	Cc1cccnc1NC(=O)c1cnn2ccc(-c3ccccc3C(F)(F)F)nc12 [Compound 653]	–
B (EC1.5 1-25 μM)	≥ 350	C (EC1.5>25 μM)	< 350	O=C(Nc1cnn2ccc(-c3ccccc3C(F)(F)F)nc12)c1ccncn1 [Compound 254]	–
B (EC1.5 1-25 μM)	≥ 350	C (EC1.5>25 μM)	< 350	O=C(Nc1cnc2ccc(-c3ccccc3Cl)nn12)c1cscn1 [Compound 291]	–
A (EC1.5<1 μM)	≥ 350	C (EC1.5>25 μM)	< 350	Cc1ccnc(C(=O)Nc2cnc3ccc(-c4ccccc4C(F)(F)F)nn23)c1 [Compound 233]	–
